Measurements: US11090324B2, “Composition, for remedying female climacteric syndrome symptoms, comprising tectorigenin 7-O-Xylosylglucoside” (LG Household & Health Care Ltd., priority 2017, dated 2021)

Experiments:
[1] = system: ovariectomy (OVX) female Sprague-Dawley rats; experiment: Serum CTX level (bone resorption marker) in ovariectomized rats, ELISA; assay type: in vivo, rat; settings: for CTX: serum, 8 weeks, sham 42.3, OVX control 78.2
Protocol: 11-12 week-old female Sprague-Dawley rats were subjected to sham operation (group 1, n=10) or ovariectomy (OVX) (groups 2-8, n=10 per each group). After a week from the operation, 0.01 mL of a sample per body weight (g) of each rat was administered orally every day for 4 weeks. 17β-Estradiol (E2) was administered to the positive control group and a 1:5:5 mixture of the three compounds tectorigenin, tectoridin and tectorigenin 7-O-xylosylglucoside was administered to the test groups. 4 weeks after the administration, the skin temperature at 2 cm where the tail starts was measured using an infrared thermometer. [table] In order to measure CTX (C-terminal telopeptide of type I collagen), which is a marker related with bone resorption, the same rats as in Example 2 were orally administered with a sample for 8 weeks and then serum was collected. The CTX level in the serum was measured using the rat C-telopeptide of type I collagen ELISA kit (MyBioSource) according to the manufacturer's instructions.

estrogen receptors = experiment: ERE (estrogen response element) reporter assay; assay type: cell-based; settings: sum of the concentrations of the three compounds 10 ppm; with respect to negative control group (1.0)
Protocol: ERE (estrogen response element) reporter assay was performed to investigate the activity of the three compounds tectorigenin 7-O-xylosylglucoside, tectorigenin and tectoridin for estrogen receptors. Tectorigenin, tectoridin and tectorigenin 7-O-xylosylglucoside were treated at ratios described in Table 1 (the sum of the concentrations of the three compounds was 10 ppm).

[2] = system: ovariectomy (OVX) female Sprague-Dawley rats; experiment: Tail skin temperature of ovariectomized rats (vasomotor symptoms); assay type: in vivo, rat; settings: oral 4 weeks, mixture 5 and 10 mg/kg/day, single compounds 10 mg/kg/day
Text: It is known that 75% of […] women experience vasomotor symptoms. Facial flushing (hot flush) is the representative symptom where the skin on face, neck and chest is reddened abruptly, accompanied by unpleasant flushing and sweating. The change in the vasomotor symptoms can be evaluated by measuring the change in skin temperature. In an animal experiment, it can be measure by the skin temperature of the rat tail (Guidelines for evaluation of health functional food, ‘Helpful for health of […] women’, National Institute of Food and Drug Safety Evaluation). 11-12 week-old female Sprague-Dawley rats were subjected to sham operation (group 1, n=10) or ovariectomy (OVX) (groups 2-8, n=10 per each group). After a week from the operation, 0.01 mL of a sample per body weight (g) of each rat was administered orally every day for 4 weeks. 17β-Estradiol (E2) was administered to the positive control group and a 1:5:5 mixture of the three compounds tectorigenin, tectoridin and tectorigenin 7-O-xylosylglucoside was administered to the test groups. 4 weeks after the administration, the skin temperature at 2 cm where the tail starts was measured using an infrared thermometer. [table]

| SMILES | CTX ([1]; 10 mg/kg/day oral) | Effect on CTX level / bone resorption (in words) ([1]; oral 8 weeks, compared to the OVX group or to tectorigenin and tectoridin) | Activity for estrogen receptors Fold induction (estrogen receptors) | Effect on increase in tail temperature caused by estrogen deficiency (in words) [2] | CTX ([1]; 0.5 mg/kg/day oral) |
| --- | --- | --- | --- | --- | --- |
| COc1c(O[C@@H]2O[C@H](CO)[C@@H](O)[C@H](O)[C@H]2O)cc2occ(-c3ccc(O)cc3)c(=O)c2c1O [Tectoridin, tectoridin] | 70.4 ng/mL |  |  |  |  |
| COc1c(O[C@@H]2O[C@H](CO[C@@H]3OC[C@@H](O)[C@H](O)[C@H]3O)[C@@H](O)[C@H](O)[C@H]2O)cc2occ(-c3ccc(O)cc3)c(=O)c2c1O [Tectorigenin 7-O-xylosylglucoside, tectorigenin 7-O-xylosylglucoside] | 58.4 ng/mL | most inhibited bone resorption | 34 fold | best effect of suppressing increase in the tail temperature |  |
| COc1c(O)cc2occ(-c3ccc(O)cc3)c(=O)c2c1O [Tectorigenin, tectorigenin] | 71.5 ng/mL |  |  |  |  |
| C[C@]12CC[C@@H]3c4ccc(O)cc4CC[C@H]3[C@@H]1CC[C@@H]2O [17β-estradiol (E2), 17β-Estradiol, reference compound] |  |  |  |  | 52.6 ng/mL |
